# In the OPERA property sets (Mansouri et al. 2018):
# Settings: 23.0 °C
row,log10 OH rate constant (cm³/molecule/s),SMILES
1,-12.5,COC(C)=O
2,-12.8,c1ncncn1

# Same assay, conditions: 24.0 °C
row,SMILES,log10 OH rate constant (cm³/molecule/s)
1,c1cscn1,-11.9
2,c1c[nH]cn1,-10.4

# Same assay, conditions: 25.0 °C
row,SMILES,log10 OH rate constant (cm³/molecule/s)
1,FC(F)C(F)(F)F,-14.6
2,C1=Cc2cccc3cccc1c23,-9.96
3,CCCCS,-10.3
4,CC(=O)CCC(C)=O,-11.1
5,Brc1ccccc1,-12.1
6,O=[N+]([O-])c1ccccc1,-12.9
7,C1COCOC1,-11
8,C1CC2CCC1CC2,-10.8
9,C=Cc1ccccc1,-10.2
10,CCCCCCCCCCCCC,-10.8
11,CN(C)N=O,-11.6
12,CCF,-12.6
13,Cc1ccccc1,-11.2
14,C1CCOC1,-10.8
15,ClCc1ccccc1,-11.5
16,CC(=O)C(C)=O,-12.6
17,c1ccc2c(c1)CCCC2,-10.5
18,CC(=O)C(F)(F)F,-13.8
19,C=C=CCC,-10.4
20,CN(C)CCO,-10
21,CCCCCCCCCC,-10.9
22,C#CC,-11.2
23,CC(=O)CC(C)=O,-11.9

row,SMILES,log10 OH rate constant (cm³/molecule/s)
1,c1ccncc1,-12.4
2,C=CC=O,-10.7
3,C=C(C)C=CC,-9.87
4,COCCOCCOC,-10.8
5,Clc1ccc(-c2ccccc2)cc1,-11.4
6,CCCCCCCCC(C)=O,-10.9
7,C/C=N/O,-11.7
8,C=CC(=C)CCC=C(C)C,-9.67
9,C1CCSC1,-10.7
10,Cc1ccc(O)cc1,-10.3
11,Nc1ccc(Cl)cc1,-10.4
12,OCC(F)(F)F,-13
13,CCOCCOCCOCC,-10.6
14,CCOCCOC(C)=O,-10.9
15,FC(F)(F)c1ccc(Cl)cc1,-12.6
16,C1CO1,-13.1
17,Cc1cccc(C)c1,-10.6
18,C#CC#C,-10.7
19,c1ccoc1,-10.4
20,ClC=C(Cl)Cl,-11.6
21,CCCSCCC,-10.7
22,O=CCO,-11
23,CCCCCCC,-11.1

row,SMILES,log10 OH rate constant (cm³/molecule/s)
1,CCCCC=O,-10.5
2,C#CCC,-11.1
3,C1C2CC3CC1CC(C2)C3,-10.6
4,O=C1CCCCC1,-11.2
5,C1CCCCC1,-11.1
6,O=CCCCC=O,-10.6
7,CCN(O)CC,-10
8,Cc1ccc(C)c(C)c1,-10.5
9,COCC(C)=O,-11.2
10,COCCO,-10.9
11,CNC,-10.2
12,CC(=O)CO,-11.5
13,C=C/C=C\C,-9.99
14,C=CC=C,-10.2
15,Clc1ccccc1Cl,-12.4
16,C=CF,-11.3
17,C=CCCC=C,-10.2
18,CCC(=O)CC,-11.7
19,CC(=O)C(C)(C)C,-11.9
20,CCS,-10.3
21,CCC=C=O,-9.93
22,O=CC=O,-10.9
23,COP(=S)(OC)SC,-10.3

row,SMILES,log10 OH rate constant (cm³/molecule/s)
1,C=C(C)C(=C)C,-9.91
2,BrCCBr,-12.6
3,Oc1ccc(Cl)cc1Cl,-12
4,C#C,-12.1
5,CCCS,-10.3
6,CCCCOC(=O)CCC,-11
7,CCOCCCO,-10.7
8,CCCCCCCCCCCCCCCC,-10.6
9,C=C(CCl)CCl,-10.5
10,CF,-13.8
11,C=CCO,-10.6
12,OCCO,-11.1
13,O=Cc1ccccc1,-10.9
14,FC(F)(F)Cl,< -15.2
15,OC1CCCC1,-11
16,CCCCCCCCC,-11
17,C1CCCOCC1,-10.8
18,CCCCCC,-11.3
19,CCO,-11.5
20,ClC(Cl)=C(Cl)Cl,-12.8
21,C=CC(=C)C,-10
22,COP(N)(=S)OC,-9.61
23,CCCCOCCO,-10.7

row,SMILES,log10 OH rate constant (cm³/molecule/s)
1,C=CCC=C,-10.3
2,FC(F)(F)CCl,-13.8
3,C=CCCCC,-10.4
4,Cc1cccc([N+](=O)[O-])c1,-12
5,Clc1ccc(Cl)cc1,-12.5
6,Sc1ccccc1,-11
7,CC(F)(F)F,-14.8
8,CCC(=O)OC,-12
9,FC(F)(Cl)Br,< -15
10,ClCC1CO1 (stereo not given),-12.4
11,Cc1ccc(N)cc1N,-9.72
12,CCC=O,-10.7
13,C1CCC2CCCCC2C1 (stereo not given),-10.7
14,C=CC(C)=O,-10.7
15,C=C(C)C=O,-10.5
16,CC=C=O,-10.2
17,FC(F)Cl,-14.3
18,FCCF,-13
19,ClC(Cl)(Cl)Cl,< -15.9
20,C#CCCC,-11
21,CS,-10.5
22,c1ccc(-c2ccccc2)cc1,-11.1
23,CN(C)c1ccccc1,-9.83

# Now from value to molecule:
row,log10 OH rate constant (cm³/molecule/s),SMILES
1,-9.96,CC(C)=C(C)C
2,-11.7,CC(C)C(=O)O
3,-10.4,c1ccc2c(c1)CCO2
4,-11.2,CCC(C)CC
5,-10.6,COC(C)CCO (stereo not given)
6,-10.9,CC(C)C(C)O (stereo not given)
7,< -11.1,Cc1ccc2ccccc2c1[N+](=O)[O-]
8,-10.3,C=C(C)C
9,-11.2,CC(C)c1ccccc1
10,-9.68,CC(C)=CC=C(C)C
11,-11.4,CCC(C)C
12,-9.87,C=CC(C)=CC
13,-11,c1cocn1
14,-11,c1ccc2c(c1)CCC2
15,-12.6,CC
16,-11,CCCCCCC(C)C
17,-11.1,CC1CCCC(C)(C)C1 (stereo not given)
18,-12,CC(C)(C)C(C)(C)C
19,-11.3,CCC(C)OC(C)=O (stereo not given)
20,-10.9,CCc1ccc(C)cc1
21,-10.9,CC(O)CO (stereo not given)
22,-9.97,CC(C)=C=O
23,-10,Cc1ccoc1

row,log10 OH rate constant (cm³/molecule/s),SMILES
1,-10.6,OCc1ccccc1
2,-10.4,c1ccc2occc2c1
3,-10.5,CC(C)=Cc1ccccc1
4,-10.7,c1ccc2ccccc2c1
5,-10.9,CC(=O)CC(C)C
6,-11,C1COC1
7,-10.7,CCc1cccc(C)c1
8,-12.1,O=C1CCC1
9,-11.4,COC(C)(C)OC
10,-11.8,CCOC(C)=O
11,-10.7,COCCC(OC)OC
12,-9.92,C1=CC2C=CC1C2
13,-11.6,CCCC
14,-9.75,CC1=CCC(C(C)C)=CC1
15,-10.5,C=CC(C)(C)C
16,-12,CCOC=O
17,-11.1,CC(C)CC(C)C(C)C (stereo not given)
18,-10.2,C=C=C(C)C
19,-11.1,COC(C)OC
20,-10.3,C1=CC2CCC1C2
21,-10.5,CC(C)(C)S
22,-11.4,CC(C)CC(C)(C)C
23,-10.9,CCOC(C)(C)OCC

row,log10 OH rate constant (cm³/molecule/s),SMILES
1,-9.86,C1=CCCCC=C1
2,-9.9,CC1=CC[C@@H](C(C)C)CC1
3,-10,CC1=CCCCC1
4,-9.96,c1cc[nH]c1
5,-11.2,CCCc1ccccc1
6,-10,C1=CC=CCC=C1
7,-10.1,C=C1CCC2CC1C2(C)C (stereo not given)
8,-11.3,CC(C)(C)c1ccccc1
9,-10.2,C1=CCCCC1
10,-11.3,CCCCC(C)(C)C
11,-10.8,COc1ccccc1
12,-10.3,CC(C)CS
13,-10.3,C=C(C)c1ccccc1
14,-11.4,CCCCC
15,-10.8,CCSCC
16,-12,CC(C)(C)O
17,-11.3,CC(C)CC(C)C
18,-11.3,CC(=O)OCC(C)C
19,-10.6,Oc1ccccc1
20,-10.2,Cc1cccc(O)c1
21,-10.4,CCC(C)S (stereo not given)
22,-9.5,CC1=CCC(C(C)C)C=C1 (stereo not given)
23,-11,CCCCC(C)CCC (stereo not given)

# Same assay, conditions: 26.0 °C
row,log10 OH rate constant (cm³/molecule/s),SMILES
1,-10.5,C=COC
2,-10.7,CN
